According to patent US7632829B2, “Diazepan derivatives” (Hoffmann-La Roche Inc., priority 2006, dated 2009):

What follows are molecules tested against T1, human chemokine receptor 2 isoform B (Homo sapiens, UniProt P41597) (assay: Calcium mobilization assay (FLIPR, CHOK1-CCR2B-A5 cells, 20 nM MCP-1)). Conditions: Ca mobilisation assay, CCR2, antagonist activity vs 20 nM MCP-1.
T1 construct: host or cells: CHOK1-CCR2B-A5 (CHO-K1)
T1 sequence (P41597 1-360 isoform P41597-2): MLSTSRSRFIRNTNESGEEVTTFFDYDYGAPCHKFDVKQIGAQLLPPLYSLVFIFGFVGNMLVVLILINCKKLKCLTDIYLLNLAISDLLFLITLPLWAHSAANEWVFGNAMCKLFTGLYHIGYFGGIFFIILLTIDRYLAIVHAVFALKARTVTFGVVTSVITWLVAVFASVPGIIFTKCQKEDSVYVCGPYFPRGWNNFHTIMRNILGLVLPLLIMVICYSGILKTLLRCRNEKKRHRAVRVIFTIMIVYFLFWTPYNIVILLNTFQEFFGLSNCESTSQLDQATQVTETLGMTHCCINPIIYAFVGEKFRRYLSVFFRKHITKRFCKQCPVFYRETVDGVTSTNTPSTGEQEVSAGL
Format: cell-based
How it was run: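 FLIPR Fluo-4 calcium readout in CHO-K1 cells stably overexpressing human CCR2B; compounds first monitored 80 s for agonist activity, then after 20-30 min at 30 °C challenged with 20 nM MCP-1. Response is max minus basal fluorescence; antagonist value is concentration giving 50% inhibition of specific calcium increase.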

**Q.** How did the IC50 turn out when `O=C1CC2(CCN(CCCN3CCN(C(=O)/C=C/c4ccc(Cl)c(Cl)c4)CCC3=O)CC2)C(=O)N1` [Example 87, 8-(3-{4-[(E)-3-(3,4-Dichloro-phenyl)-acryloyl]-7-oxo-[1,4]diazepan-1-yl}-propyl)-2,8-diaza-spiro[4.5]decane-1,3-dione] was run?
**A.** 315 nM

**Q.** With `O=C(/C=C/c1ccc(Cl)c(Cl)c1)N1CCC(=O)N(CCCN2CCN(C3CC3)CC2)CC1` [Example 241] as the molecule, how does the IC50 read?
**A.** 765 nM

**Q.** For `O=C(/C=C/c1ccc(Cl)c(Cl)c1)N1CCC(=O)N(C[C@@H](O)CN2CCC3(CC3)C(O)C2)CC1` (stereo partly drawn) [Example 327, 1-[(E)-3-(3,4-Dichloro-phenyl)-acryloyl]-4-[(S)-2-hydroxy-3-((−)-4-hydroxy-6-aza-spiro[2.5]oct-6-yl)-propyl]-[1,4]diazepan-5-one], which IC50 is on record?
**A.** 2 nM

**Q.** `O=C(/C=C/c1ccc(Cl)c(Cl)c1)N1CCC(=O)N(CCCCN2CCOCC2)CC1` [Example 155, 1-[(E)-3-(3,4-Dichloro-phenyl)-acryloyl]-4-(4-morpholin-4-yl-butyl)-[1,4]diazepan-5-one] was tested. Which IC50 did it give?
**A.** 370 nM

**Q.** With `C[C@@]1(CO)CCN(CCCCN2CCN(C(=O)/C=C/c3ccc(Cl)c(Cl)c3)CCC2=O)C[C@H]1O` [Example 474] as the molecule, how does the IC50 read?
**A.** 106 nM

**Q.** `CN(CCCN1CCN(C(=O)/C=C/c2ccc(Cl)c(Cl)c2)CCC1=O)C1CCCC1` [Example 37, 4-[-3-(Cyclopentyl-methyl-amino)-propyl]-1-[(E)-3-(3,4-dichloro-phenyl)-acryloyl]-[1,4]diazepan-5-one] was tested. Which IC50 did it give?
**A.** 265 nM

**Q.** With `O=C(/C=C/c1ccc(F)c(Cl)c1)N1CCC(=O)N(CCCCN2CCN(C3CC3)CC2)CC1` [Example 397] as the molecule, how does the IC50 read?
**A.** 944 nM

**Q.** For `O=C(/C=C/c1ccc(F)c(Cl)c1)N1CCC(=O)N(CCCN2CCCCC2CO)CC1` (racemic) [Example 210], which IC50 is on record?
**A.** 1140 nM

**Q.** With `C[C@H]1[C@H](O)CCCN1CC(O)CCN1CCN(C(=O)/C=C/c2ccc(Cl)c(Cl)c2)CCC1=O` (relative stereo) [Example 362] as the molecule, how does the IC50 read?
**A.** 504 nM

**Q.** How did the IC50 turn out when `O=C(/C=C/c1ccc(Cl)c(F)c1)N1CCC(=O)N(CCCN2CCC3(CC3)C(O)C2)CC1` (stereo not drawn) [Example 494, 1-[(E)-3-(4-Chloro-3-fluoro-phenyl)-acryloyl]-4-[3-((−)-4-hydroxy-6-aza-spiro[2.5]oct-6-yl)-propyl]-[1,4]diazepan-5-one] was run?
**A.** 6 nM

**Q.** Which IC50 does the source give for `O=C(/C=C/c1ccc(Cl)c(Cl)c1)N1CCC(=O)N(CCCN2CCCCC2CO)CC1` (racemic) [Example 227] here?
**A.** 409 nM

**Q.** How did the IC50 turn out when `CC1CC(O)CN(CCCCN2CCN(C(=O)C=Cc3ccc(Cl)c(F)c3)CCC2=O)C1` (mixture of isomers) [Example 421, (rac,cis)-1-[(E)-3-(4-Chloro-3-fluoro-phenyl)-acryloyl]-4-[4-(3-hydroxy-5-methyl-piperidin-1-yl)-butyl]-[1,4]diazepan-5-one] was run?
**A.** 64 nM

**Q.** For `CC1CCN(CCCN2CCN(C(=O)C=Cc3ccc(Cl)c(Cl)c3)CCC2=O)CC1O` (single isomer, unassigned) [Example 259, 1-[(E)-3-(3,4-Dichloro-phenyl)-acryloyl]-4-[3-((+, cis)-3-hydroxy-4-methyl-piperidin-1-yl)-propyl]-[1,4]diazepan-5-one], which IC50 is on record?
**A.** 57 nM

**Q.** With `O=C(/C=C/c1ccc(Cl)c(Cl)c1)N1CCC(=O)N(CCCCCN2CCCCC2)CC1` [Example 162, 1-[(E)-3-(3,4-Dichloro-phenyl)-acryloyl]-4-(5-piperidin-1-yl-pentyl)-[1,4]diazepan-5-one] as the molecule, how does the IC50 read?
**A.** 319 nM

**Q.** Which IC50 does the source give for `COC(=O)N(C)C1CCN(CCCCN2CCN(C(=O)/C=C/c3ccc(Cl)c(Cl)c3)CCC2=O)CC1` [Example 442] here?
**A.** 85 nM

**Q.** With `C[C@@H]1CCN(CCCCN2CCN(C(=O)/C=C/c3ccc(Cl)c(Cl)c3)CCC2=O)C[C@H]1O` (racemic) [Example 454, (rac)-1-[(E)-3-(3,4-Dichloro-phenyl)-acryloyl]-4-[4-(trans-3-hydroxy-4-methyl-piperidin-1-yl)-butyl]-[1,4]diazepan-5-one] as the molecule, how does the IC50 read?
**A.** 230 nM

**Q.** With `O=C(C=Cc1ccc(F)c(Cl)c1)N1CCC(=O)N(CCCN2CCC(O)C(F)C2)CC1` (mixture of isomers) [Example 214, (rac,trans)-1-[(E)-3-(3-Chloro-4-fluoro-phenyl)-acryloyl]-4-[3-(3-fluoro-4-hydroxy-piperidin-1-yl)-propyl]-[1,4]diazepan-5-one] as the molecule, how does the IC50 read?
**A.** 592 nM

**Q.** For `O=C(/C=C/c1ccc(Cl)c(Cl)c1)N1CCC(=O)N(C[C@@H](O)CN2CCC3(CC3)C(O)C2)CC1` (stereo partly drawn) [Example 332, 1-[(E)-3-(3,4-Dichloro-phenyl)-acryloyl]-4-[(S)-2-hydroxy-3-((+)-4-hydroxy-6-aza-spiro[2.5]oct-6-yl)-propyl]-[1,4]diazepan-5-one], which IC50 is on record?
**A.** 2 nM

**Q.** `O=C(/C=C/c1ccc(F)c(Cl)c1)N1CCC(=O)N(C[C@@H](O)CN2CCC3(CC3)C(O)C2)CC1` (stereo partly drawn) [Example 342, 1-[(E)-3-(3-Chloro-4-fluoro-phenyl)-acryloyl]-4-[(S)-2-hydroxy-3-((+)-4-hydroxy-6-aza-spiro[2.5]oct-6-yl)-propyl]-[1,4]diazepan-5-one] was tested. Which IC50 did it give?
**A.** 3 nM

**Q.** `C[N+]1(CCCN2CCN(C(=O)C=Cc3ccc(Cl)c(Cl)c3)CCC2=O)CCCCC1` [Example 154, 1-(3-{4-[3-(3,4-Dichloro-phenyl)-acryloyl]-7-oxo-[1,4]diazepan-1-yl}-propyl)-1-methyl-piperidinium iodide] was tested. Which IC50 did it give?
**A.** 373 nM

**Q.** With `O=C(C=Cc1ccc(Cl)c(Cl)c1)N1CCC(=O)N(CCNC2CC3CCC2C3)CC1` (racemic) [Example 110, (+/−)-4-[3-(Bicyclo[2.2.1]hept-2-ylamino)ethyl]-1-[(E)-3-(3,4-dichloro-phenyl)-acryloyl]-[1,4]diazepan-5-one] as the molecule, how does the IC50 read?
**A.** 641 nM

**Q.** Which IC50 does the source give for `O=C(/C=C/c1ccc(Cl)c(Cl)c1)N1CCC(=O)N(CCCN2CCC(O)(Cc3ccccc3)CC2)CC1` [Example 49, 4-[(E)-3-(4-Benzyl-4-hydroxy-piperidin-1-yl)-propyl]-1-[(E)-3-(3,4-dichloro-phenyl)-acryloyl]-[1,4]diazepan-5-one] here?
**A.** 510 nM

**Q.** With `CO[C@@H]1CN(CCCCN2CCN(C(=O)/C=C/c3ccc(Cl)c(Cl)c3)CCC2=O)CC[C@@H]1CO` (racemic) [Example 472] as the molecule, how does the IC50 read?
**A.** 418 nM

**Q.** With `CC1(CO)CCN(CC(O)CN2CCN(C(=O)/C=C/c3ccc(Cl)c(Cl)c3)CCC2=O)CC1` (racemic) [Example 319] as the molecule, how does the IC50 read?
**A.** 265 nM

**Q.** For `C[C@@H]1C[C@H](O)CN(CC(O)CN2CCN(C(=O)/C=C/c3ccc(F)c(F)c3)CCC2=O)C1` (mixture of isomers) [Example 504], which IC50 is on record?
**A.** 316 nM

**Q.** How did the IC50 turn out when `O=C(/C=C/c1ccc(Cl)c(Cl)c1)N1CCC(=O)N(CC(O)CN2CCCCC2)CC1` (racemic) [Example 166, (rac)-1-[(E)-3-(3,4-Dichloro-phenyl)-acryloyl]-4-(2-hydroxy-3-piperidin-1-yl-propyl)-[1,4]diazepan-5-one] was run?
**A.** 212 nM

**Q.** How did the IC50 turn out when `O=C(/C=C/c1ccc(Cl)c(Cl)c1)N1CCC(=O)N(C[C@@H](O)CN2CC[C@H](CO)[C@H](O)C2)CC1` (mixture of isomers) [Example 328, 1-[(E)-3-(3,4-Dichloro-phenyl)-acryloyl]-4-[(S)-2-hydroxy-3-(cis-3-hydroxy-4-hydroxymethyl-piperidin-1-yl)-propyl]-[1,4]diazepan-5-one] was run?
**A.** 28 nM

**Q.** Which IC50 does the source give for `O=C(/C=C/c1ccc(Cl)c(Cl)c1)N1CCC(=O)N(CC(O)CN2CC[C@@H](F)[C@H](O)C2)CC1` (mixture of isomers) [Example 284] here?
**A.** 717 nM

**Q.** Which IC50 does the source give for `O=C(/C=C/c1ccc(Cl)c(Cl)c1)N1CCC(=O)N(CCN[C@H]2CC[C@H](O)CC2)CC1` [Example 106, trans-1-[(E)-3-(3,4-Dichloro-phenyl)-acryloyl]-4-[2-(4-hydroxy-cyclohexylamino)-ethyl]-[1,4]diazepan-5-one] here?
**A.** 523 nM

**Q.** How did the IC50 turn out when `CC1CCN(CCCN2CCN(C(=O)/C=C/c3ccc(Cl)c(Cl)c3)CCC2=O)CC1` [Example 50, 1-[(E)-3-(3,4-Dichloro-phenyl)-acryloyl]-4-[3-(4-methyl-piperidin-1-yl)-propyl]-[1,4]diazepan-5-one] was run?
**A.** 55 nM

**Q.** How did the IC50 turn out when `O=C(/C=C/c1ccc(Cl)c(Cl)c1)N1CCC(=O)N(CCC(O)CN2CCCCC2)CC1` (racemic) [Example 170, (rac)-1-[(E)-3-(3,4-Dichloro-phenyl)-acryloyl]-4-(3-hydroxy-4-piperidin-1-yl-butyl)-[1,4]diazepan-5-one] was run?
**A.** 448 nM

**Q.** Which IC50 does the source give for `CN(CCN1CCN(C(=O)/C=C/c2ccc(Cl)c(Cl)c2)CCC1=O)C1CCOCC1` [Example 134, 1-[(E)-3-(3,4-Dichloro-phenyl)-acryloyl]-4-{3-[methyl-(tetrahydro-pyran-4-yl)-amino]-ethyl}-[1,4]diazepan-5-one] here?
**A.** 600 nM

**Q.** For `CC1(O)CCCN(CC(O)CN2CCN(C(=O)/C=C/c3ccc(Cl)c(Cl)c3)CCC2=O)C1` (racemic) [Example 303], which IC50 is on record?
**A.** 257 nM

**Q.** With `CCOC(=O)NC1CCN(CCCN2CCN(C(=O)/C=C/c3ccc(Cl)c(Cl)c3)CCC2=O)CC1` [Example 82, [1-(3-{4-[(E)-3-(3,4-Dichloro-phenyl)-acryloyl]-7-oxo-[1,4]diazepan-1-yl}-propyl)-piperidin-4-yl]-carbamic acid ethyl ester] as the molecule, how does the IC50 read?
**A.** 297 nM

**Q.** Which IC50 does the source give for `O=C(/C=C/c1ccc(Cl)c(Cl)c1)N1CCC(=O)N(CCCCN2CCCCC2)CC1` [Example 9, 1-[(E)-3-(3,4-Dichloro-phenyl)-acryloyl]-4-(4-piperidin-1-yl-butyl)-[1,4]diazepan-5-one] here?
**A.** 140 nM

**Q.** For `CC(=O)NC1CCN(CCCN2CCN(C(=O)/C=C/c3ccc(Cl)c(Cl)c3)CCC2=O)C1` (racemic) [Example 44, (+/−)-N-[1-(E)-(3-{4-[3-(3,4-Dichloro-phenyl)-acryloyl]-7-oxo-[1,4]diazepan-1-yl}-propyl)-pyrrolidin-3-yl]-acetamide], which IC50 is on record?
**A.** 646 nM
